“And” between values parts separate entries of the source, which are not always exact repeats. Identical values can stand only once. Like-named read-outs stand apart in the source and are kept apart here. Bounds are passed on as bounds.

Data set [1] can be described thus: Metabolic stability in liver microsomes: Mouse BL6. The note with it: 1 μM compound, 0.3 mg/mL protein, NADPH, 37° C., read-out: Mouse BL6 Liver Microsome Stability Half-life. Type of data set: in vitro ADME. (In general: Liver microsomes are a subcellular fraction often used to study metabolism.)
A further data set has as its target T1, Full length Human HDAC6 (Homo sapiens, UniProt Q9UBN7).
T1 sequence (Q9UBN7 1-1215): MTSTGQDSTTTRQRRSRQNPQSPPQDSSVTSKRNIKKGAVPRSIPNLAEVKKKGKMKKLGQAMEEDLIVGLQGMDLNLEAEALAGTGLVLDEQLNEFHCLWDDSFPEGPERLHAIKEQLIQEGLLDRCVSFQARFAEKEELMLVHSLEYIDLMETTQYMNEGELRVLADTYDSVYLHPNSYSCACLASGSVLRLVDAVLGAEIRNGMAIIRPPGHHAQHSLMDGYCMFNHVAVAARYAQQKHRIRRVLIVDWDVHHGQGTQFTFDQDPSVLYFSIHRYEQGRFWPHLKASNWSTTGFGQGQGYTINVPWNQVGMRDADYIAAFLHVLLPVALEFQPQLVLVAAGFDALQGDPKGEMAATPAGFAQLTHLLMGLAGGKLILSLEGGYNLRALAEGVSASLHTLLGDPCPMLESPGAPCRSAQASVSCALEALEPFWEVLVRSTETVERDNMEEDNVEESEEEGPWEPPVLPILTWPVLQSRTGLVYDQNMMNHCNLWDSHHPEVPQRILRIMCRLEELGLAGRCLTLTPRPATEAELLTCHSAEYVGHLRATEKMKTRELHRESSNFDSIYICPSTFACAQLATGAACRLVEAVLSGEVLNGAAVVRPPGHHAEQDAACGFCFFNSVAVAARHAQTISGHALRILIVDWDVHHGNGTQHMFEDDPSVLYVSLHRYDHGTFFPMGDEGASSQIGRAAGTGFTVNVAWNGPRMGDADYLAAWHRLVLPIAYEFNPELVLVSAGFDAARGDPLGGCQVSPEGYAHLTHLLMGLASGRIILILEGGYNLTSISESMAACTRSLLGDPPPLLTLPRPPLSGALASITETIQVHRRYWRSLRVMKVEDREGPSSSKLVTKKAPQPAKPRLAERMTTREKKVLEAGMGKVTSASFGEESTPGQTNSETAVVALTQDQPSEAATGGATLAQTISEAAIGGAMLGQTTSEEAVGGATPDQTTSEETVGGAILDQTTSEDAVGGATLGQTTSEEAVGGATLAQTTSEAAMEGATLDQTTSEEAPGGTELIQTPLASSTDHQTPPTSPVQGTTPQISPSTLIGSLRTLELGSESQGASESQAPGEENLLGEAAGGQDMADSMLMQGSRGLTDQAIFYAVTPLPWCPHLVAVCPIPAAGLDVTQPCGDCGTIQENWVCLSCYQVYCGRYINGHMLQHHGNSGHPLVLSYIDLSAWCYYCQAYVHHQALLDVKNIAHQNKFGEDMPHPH
To be noted: for Selectivity (6 v 8) (fold): ratio of HDAC8 IC50/HDAC6 IC50.

The target in another data set is T2, Full length Human HDAC8 (Homo sapiens, UniProt Q9BY41).
T2 sequence (Q9BY41 1-377): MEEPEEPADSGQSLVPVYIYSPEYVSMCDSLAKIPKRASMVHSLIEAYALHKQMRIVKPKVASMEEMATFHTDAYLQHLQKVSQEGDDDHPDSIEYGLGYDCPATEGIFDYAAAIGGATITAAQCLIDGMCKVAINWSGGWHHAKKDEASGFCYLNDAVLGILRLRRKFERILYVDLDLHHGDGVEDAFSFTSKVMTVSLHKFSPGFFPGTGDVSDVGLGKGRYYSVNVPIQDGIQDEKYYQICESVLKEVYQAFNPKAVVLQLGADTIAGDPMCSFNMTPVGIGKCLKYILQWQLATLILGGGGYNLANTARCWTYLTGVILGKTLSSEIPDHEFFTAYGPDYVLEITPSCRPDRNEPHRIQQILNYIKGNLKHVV

A further data set concerns the target Full length Human HDAC1 (Homo sapiens, UniProt Q13547).
Data set [2] concerns the target Human HDAC9 a.a. 604-1066 (Homo sapiens, UniProt Q9UKV0).
For another data set, the target named is T3, Human HDAC7 aa 518-end (Homo sapiens, UniProt Q8WUI4).
T3 sequence (Q8WUI4 518-952 limits assumed): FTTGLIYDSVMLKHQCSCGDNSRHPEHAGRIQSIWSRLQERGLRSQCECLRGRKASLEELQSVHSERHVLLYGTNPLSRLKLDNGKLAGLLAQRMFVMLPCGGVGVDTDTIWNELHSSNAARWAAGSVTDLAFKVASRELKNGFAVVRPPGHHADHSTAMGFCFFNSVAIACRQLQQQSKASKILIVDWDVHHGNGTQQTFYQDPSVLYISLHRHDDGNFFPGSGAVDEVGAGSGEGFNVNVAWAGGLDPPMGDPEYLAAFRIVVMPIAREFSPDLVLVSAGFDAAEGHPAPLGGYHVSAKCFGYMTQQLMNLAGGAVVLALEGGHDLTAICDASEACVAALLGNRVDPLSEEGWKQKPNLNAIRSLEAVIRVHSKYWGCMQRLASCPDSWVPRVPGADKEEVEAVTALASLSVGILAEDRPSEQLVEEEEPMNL

In data set [3] the test system is histone H3 acetylation (acH3K9) in undifferentiated SH-SY5Y cells. Briefly: Histone H3 acetylation in cells (Western immunoblot). The note with it: Homo sapiens, 4 hours, acetyl histone H3K9/histone H3 ratio. The format is cell-based. As for the experimental part:
(§1) Compound EC50 Determination for Tubulin- and Histone H3 Acetylation in Cells
(§2) Estimation of the EC50 for exemplary compounds to alter target protein acetylation in undifferentiated SH-SY5Y cells was performed using standard Western immunoblotting methods. […] SH-SY5Y cells were grown to 90% confluency on sterile cell growth plates. 10 mM compound stocks prepared in DMSO and two-fold serial dilutions were prepared from the stock and applied to cells to achieve a 12-point concentration range in cell media from an upper limit of 10 μM to a lower limit of DMSO [zero compound].
(§3) Cells were incubated under normal growth conditions (37° C., 5% CO2) in the presence of compound for 4 hours, then media was aspirated and cells were rinsed two times with 1×DPBS with calcium and magnesium warmed to 37° C. Cells were frozen directly on the plates on a bed of dry ice for 5 min, then stored at −80° C. until protein extraction.
(§4) Protein extraction was performed in RIPA buffer (50 mM Tris-HCL pH 8.0, 150 mM NaCl, 0.5% sodium deoxycholate, 0.1% sodium dodecyl sulfate, 1% NP-40) supplemented with Pierce protease inhibitor mini tables (Thermofisher cat #A32953) exactly as described by the manufacturer. After thawing the plate on a bed of wet ice for 10 minutes, lysis buffer was added to each well (e.g. 100 μL per well of a 24-well plate) and cells scraped from the bottom of each well. Lysates were then sonicated over ice (40% power, 30 pulses of 1 second on, 2 seconds off), centrifuged at 16,000 g for 10 min at 4° C., and the clarified supernatant saved. Protein concentration was determined by BCA assay and at least 3 μg prepared per lane by combining lysate supernatant aliquot with 1/3 total volume of 3× gel loading buffer containing DTT (NEB Cat. #B7703S), heating for 5 minutes at 95° C., briefly centrifuging and then loading on an SDS-PAGE gel.
(§5) Proteins were resolved on a 4-20% Tris-Glycine gel and transferred to PVDF membrane using an iBlot2 dry transfer system. The membrane was then blocked for at least 30 minutes at room temperature in TBST containing 5% milk or 5% bovine serum albumin, then incubated overnight at 4° C. with a single primary antibody from the following table:
(§6) Following primary antibody incubation, membranes were washed, incubated in secondary antibody, washed and incubated in ECL prime western blotting detection reagent (Amersham #RPN223) with membrane exposure and ECL signal capture in a LI-COR Odyssey Imaging system. […] Subsequent densitometry of immunoreactive bands was performed using the ImageStudio software and Microsoft Excel resulting in the following ratios: acetylTubulin/Tubulin and acetyl histone H3K9/histone H3. Raw ratios were uploaded to GraphPad Prism v7.0 with EC50 values modeled using the variable slope equation for log-transformed data [log(agonist) vs response in Prism].
Background: Immunoblotting shows a protein as a band on a membrane.

The test system of data set [4] is tubulin acetylation (acTubK40) in undifferentiated SH-SY5Y cells. Put plainly: Tubulin acetylation in cells (Western immunoblot). Type of data set: cell-based. To be noted: Homo sapiens, 4 hours, acetylTubulin/Tubulin ratio. As to the method: as §1, §2, §3, §4, §5, §6
Data set [5] concerns SH-SY5Y, human neuroblastoma. The note with it: 30 µM.
The test system of data set [6] is HEK293, human embryonic kidney. The note with it: 30 µM.
A short description of data set [7]: Cell viability in primary rat dorsal root ganglia (DRG). Type of data set: cell-based.

Sequence of Full length Human HDAC1 (Q13547 whole entry): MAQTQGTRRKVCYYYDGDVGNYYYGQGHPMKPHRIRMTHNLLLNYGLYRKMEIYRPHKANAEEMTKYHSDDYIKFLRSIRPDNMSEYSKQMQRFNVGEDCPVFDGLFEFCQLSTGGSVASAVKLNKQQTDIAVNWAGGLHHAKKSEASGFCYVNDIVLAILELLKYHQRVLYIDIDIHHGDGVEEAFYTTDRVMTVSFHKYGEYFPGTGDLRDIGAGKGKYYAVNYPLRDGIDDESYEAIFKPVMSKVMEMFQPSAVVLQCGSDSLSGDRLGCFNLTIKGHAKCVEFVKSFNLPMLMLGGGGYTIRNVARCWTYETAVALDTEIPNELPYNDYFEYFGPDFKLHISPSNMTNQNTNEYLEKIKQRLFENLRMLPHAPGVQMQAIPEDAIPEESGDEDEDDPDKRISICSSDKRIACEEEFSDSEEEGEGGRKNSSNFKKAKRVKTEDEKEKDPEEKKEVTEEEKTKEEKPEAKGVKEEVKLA
Sequence of Human HDAC9 a.a. 604-1066 (Q9UKV0 604-1066 isoform Q9UKV0-5): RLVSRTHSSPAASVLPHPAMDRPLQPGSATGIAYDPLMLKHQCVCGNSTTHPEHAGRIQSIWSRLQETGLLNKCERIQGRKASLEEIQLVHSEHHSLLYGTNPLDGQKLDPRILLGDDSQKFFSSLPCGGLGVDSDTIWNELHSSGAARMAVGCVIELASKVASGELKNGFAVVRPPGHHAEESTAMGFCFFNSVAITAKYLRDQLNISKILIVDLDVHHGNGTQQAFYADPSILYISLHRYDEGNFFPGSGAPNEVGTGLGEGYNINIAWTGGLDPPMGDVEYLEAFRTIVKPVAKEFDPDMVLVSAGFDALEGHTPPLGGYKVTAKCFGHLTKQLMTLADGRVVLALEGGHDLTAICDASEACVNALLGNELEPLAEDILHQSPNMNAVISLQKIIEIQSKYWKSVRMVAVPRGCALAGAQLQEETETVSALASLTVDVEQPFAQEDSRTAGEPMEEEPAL

As for `O=C(NO)c1ccc(CN2C3CCCC2COC3)c(F)c1` [compound 52], the half-life (in general, the time in which the quantity being followed falls by half) at 1 μM in data set [1] amounted to 4.83 h. The half-inhibitory concentration (IC50) (commonly the concentration needed to halve the response being measured) at Full length Human HDAC6 is 1 to 100 nM; on Full length Human HDAC8, 100 to 1000 nM. The “Selectivity (6 v 8) (fold)” value at Full length Human HDAC6 (Table 1, number) is on record as 35.5 fold; on Full length Human HDAC6 (Table 1, range class) it was “III (III: >10-100)”.

As for `O=C(NO)c1cc(F)c2c(c1)CN1CCC[C@@H]1C2` (single isomer, unassigned) [compound 124], the 50% inhibitory concentration (IC50) is more than 100000 nM on Full length Human HDAC1; 1 to 100 nM against Full length Human HDAC6; more than 100000 nM in [2]; 1000 to 10000 nM against Full length Human HDAC8; 1000 to 10000 nM against Human HDAC7 aa 518-end.

As for `Cn1c2c(c3ccccc31)CCN(Cc1ccc(C(=O)NO)cc1F)C2` [compound 45], the results for the EC50 in data set [3] and in data set [4] were more than 10000 nM and 1700 nM, respectively. Besides, the values for the IC50 on Full length Human HDAC6 and against Full length Human HDAC8 were 1 to 100 nM and 100 to 1000 nM, respectively.

As to `C[C@@H]1C[C@H]2c3c(F)cc(C(=O)NO)cc3CCN2C1` (single isomer, unassigned) [compound 152], the IC50 against Full length Human HDAC1 lay in the range of 10000 to 100000 nM; at Full length Human HDAC6 it was 1 to 100 nM; in [2], 100 to 1000 nM; against Full length Human HDAC8, 1000 to 10000 nM; against Human HDAC7 aa 518-end, 100 to 1000 nM.

In the case of `CN1CCc2c(c3ccccc3n2Cc2ccc(C(=O)NO)cc2)C1` [Tubastatin A], in data set [5], the “Cell viability (percent luminescence ± SD) SH-SY5Y 4 hrs” value stood at 105.8 ± 15% and the “Cell viability (percent luminescence ± SD) SH-SY5Y 24 hrs” value was determined as 117.3 ± 4.1%. Besides, the viability (as a rule, a read-out of living cells in per cent, often relative to untreated cells) in [6] was 88.9% and 55.3%.

For `O=C(CCCCCCNC(=O)c1cnc(N(c2ccccc2)c2ccccc2)nc1)NO` [Ricolinostat], in data set [7], the midpoint of cytotoxicity, the CC50 at 72 h, lay at 5200 nM.
